# US10821126B2, “Agent for treating retinopathy” (CARNA HEALTH SUPPORT LTD., priority 2016, dated 2020)
# Several values for one entry are separate records, joined by “and”; a condition that tells them apart may be missing. Equal values may be shown once.
# Legend:
# SGLT2 = biological target: T1, SGLT2 (Homo sapiens, UniProt P31639); settings: cited from earlier work
# T1 sequence (P31639 1-672): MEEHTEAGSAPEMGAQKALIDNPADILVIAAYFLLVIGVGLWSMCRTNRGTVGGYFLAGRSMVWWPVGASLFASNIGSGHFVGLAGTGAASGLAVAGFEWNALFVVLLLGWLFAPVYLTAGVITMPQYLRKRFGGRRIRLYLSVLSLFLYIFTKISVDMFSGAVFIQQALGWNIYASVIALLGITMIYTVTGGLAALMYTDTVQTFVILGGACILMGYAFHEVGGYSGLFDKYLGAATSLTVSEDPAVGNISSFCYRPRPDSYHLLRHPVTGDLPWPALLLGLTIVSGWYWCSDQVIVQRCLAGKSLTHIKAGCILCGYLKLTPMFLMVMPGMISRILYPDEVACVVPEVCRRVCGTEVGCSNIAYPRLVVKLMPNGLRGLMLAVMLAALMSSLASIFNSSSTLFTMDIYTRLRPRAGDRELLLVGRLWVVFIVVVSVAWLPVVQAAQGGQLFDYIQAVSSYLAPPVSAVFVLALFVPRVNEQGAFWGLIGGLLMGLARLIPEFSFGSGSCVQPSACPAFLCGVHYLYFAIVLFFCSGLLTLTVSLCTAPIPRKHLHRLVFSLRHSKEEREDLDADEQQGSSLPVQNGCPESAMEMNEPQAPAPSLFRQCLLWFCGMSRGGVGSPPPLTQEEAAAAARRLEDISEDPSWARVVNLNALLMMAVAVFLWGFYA
# [1] = authorized minimum dosage amount; cited from earlier work
# [2] = test system: increase of retinal vascular permeability in db/db mouse; assay: Retinal vascular permeability (retinal albumin amount by western blot) in spontaneous type 2 diabetes model db/db mouse; type: in vivo; settings: oral
# Procedure: Subsequently, the amelioration effect on diabetic retinal function (amelioration effect on permeability increase which is a representative abnormality of diabetic retinal vessels) by the therapeutic agent of the present invention (existing SGLT2 inhibitor agent) was confirmed by using spontaneous type 2 diabetes model db/db mouse.
# Since 8 weeks after birth of spontaneous type 2 diabetes model db/db mouse, a dosage amount (10 mg/kg/day as luseogliflozin) of luseogliflozin hydrate which is an existing SGLT2 inhibitor agent, with which an antihyperglycemic action is confirmed in mouse was orally administered. Two weeks after administration of SGLT2 inhibitor agent, the mouse was euthanized, and all blood vessels were sufficiently refluxed with 10 ml of phosphate buffer solution (PBS), and the eyeballs were extracted. After isolating retina, the albumin amount in the retinal tissues leaked from the blood vessels was measured by western blott method, to assess the vascular permeability increase. The albumin amount in retina was corrected with […], and is shown by % control by using control db/+ mouse as a standard.
# Next, similarly as for luseogliflozin, the function improvement on increase of retinal vascular permeability was assessed using canagliflozin. Canagliflozin hydrate which is an existing SGLT2 inhibitor agent was orally administered for 2 weeks, at a dosage amount (3 mg/kg/day as canagliflozin) with which an antihyperglycemic action is confirmed in mouse, and at a low dosage (0.01 mg/kg/day as canagliflozin) not showing an antihyperglycemic action.
# [3] = test system: diabetic retinopathy having macular edema; assay: Cases of diabetic retinopathy having macular edema, assessed by optical coherence tomography (OCT), HbA1c and vision; type: in vivo, human
# Procedure: To four cases of diabetic retinopathy having macular edema to which conventional intraocular injection of steroid or anti-VEGF antibody was not effective, the therapeutic agent of the present invention (existing SGLT2 inhibitor) was administered at a normal dosage amount or at a lower dosage amount, and the effect was confirmed. Specifically, for the three cases using dapagliflozin and one case using canagliflozin, the effect was confirmed by assessment using optical coherence tomography (OCT). Person; suffering from type 2 diabetes, accompanied with proliferative retinopathy in both eyes, and macular edema in both eyes. Steroid sub-tenon injection was frequently performed but was treatment-resistant. […], person; suffering from type 2 diabetes, accompanied with proliferative retinopathy in both eyes, and macular edema in both eyes. Steroid sub-tenon injection was performed but was treatment-resistant. […], person; suffering from type 2 diabetes, accompanied with simple diabetic retinopathy in both eyes, and macular edema in right eye. […], person; suffering from type 2 diabetes, accompanied with preproliferative diabetic retinopathy in both eyes, and macular edema in right eye. Steroid intraocular injection was performed to right eye macular edema, but was resistant.
# [4] = test system: spontaneous type 2 diabetes model db/db mouse; assay: Effects on body weight, feed intake, urine volume and blood sugar in db/db mouse; type: in vivo; settings: oral, 2 weeks
# Procedure: The above-mentioned low dosage (0.01 mg/kg/day as canagliflozin) not showing an antihyperglycemic action was confirmed by the following method.
# […] Effects on body weight, feed intake, urine volume and blood sugar were confirmed.
# FIGS. 6 and 7 show the results of fructosamine level which is an index for fasting blood sugar and average blood sugar levels when administering 3 mg/kg/day and 0.01 mg/kg/day of canagliflozin hydrate.
smiles,measurement,setting,value
CCc1ccc(Cc2ccc3c(c2)[C@]2(OC3)O[C@H](CO)[C@@H](O)[C@H](O)[C@H]2O)cc1 [tofogliflozin hydrate],"IC50 level showing the inhibition activity, compared with canagliflozin",SGLT2,similar
same,"maximum blood concentration (Cmax) in the minimum dosage amount, relative to that of canagliflozin",[1],approximately 1/10
Cc1ccc([C@@H]2O[C@H](CO)[C@@H](O)[C@H](O)[C@H]2O)cc1Cc1ccc(-c2ccc(F)cc2)s1 [canagliflozin hydrate],increase of retinal albumin amount (retinal vascular permeability),"[2]; 0.01 mg/kg/day as canagliflozin, 2 weeks",significantly ameliorated to the control group level
same,increase of retinal albumin amount (retinal vascular permeability),"[2]; 3 mg/kg/day as canagliflozin, 2 weeks",significantly ameliorated to the control group level
same,blood sugar control,"[3]; Case 2, 100 mg/day as canagliflozin",no change in blood sugar control
same,HbA1 after administration,"[3]; Case 2, 100 mg/day as canagliflozin, 8.0 before administration, hydrate",8.4 and 8.1 and 7.8
same,OCT findings,"[3]; Case 2, 100 mg/day as canagliflozin, about 5 months after initiation of administration","decrease of macular retinal thickness, cyst reduction, and significant amelioration of laminar structure"
same,"vision, right eye, after administration","[3]; Case 2, 100 mg/day as canagliflozin, from 0.4",0.5
same,"vision, left eye, after administration","[3]; Case 2, 100 mg/day as canagliflozin, from 0.7",1.2
same,blood sugar,[4]; 0.001 mg/kg/day,no significant decrease
same,blood sugar,"[4]; 0.01 mg/kg/day, hydrate",no significant blood sugar decrease
same,blood sugar,[4]; 0.1 mg/kg/day,no significant decrease
same,fructosamine level which is an index for fasting blood sugar and average blood sugar levels,"[4]; 3 mg/kg/day, vs non-administered group (FIGS. 6 and 7)",significantly decreased
CCOc1ccc(Cc2cc([C@@H]3O[C@H](CO)[C@@H](O)[C@H](O)[C@H]3O)ccc2Cl)cc1 [dapagliflozin propylene glycol hydrate],HbA1 after administration,"[3]; Case 1, 2.5 mg/day as dapagliflozin, 6.7 before administration",6.6
same,"vision, left eye, after administration","[3]; Case 1, 2.5 mg/day as dapagliflozin, did not change",1.2
same,"vision, right eye, after administration","[3]; Case 1, 2.5 mg/day as dapagliflozin, from 0.7",0.8
same,vision after administration,"[3]; Case 3, 2.5 mg/day as dapagliflozin, from 0.15",0.2
same,HbA1c after administration,"[3]; Case 3, 2.5 mg/day as dapagliflozin, from 8.7",8.0
same,vision,"[3]; Case 4, 2.5 mg/day as dapagliflozin, did not change due to severe retinopathy",0.1
same,HbA1c after administration,"[3]; Case 4, 2.5 mg/day as dapagliflozin, from 5.9, no change",6.1%
OC[C@H]1O[C@@H](c2ccc(F)c(Cc3cc4ccccc4s3)c2)[C@H](O)[C@@H](O)[C@@H]1O [ipragliflozin L-proline],"IC50 level showing the inhibition activity, compared with canagliflozin",SGLT2,similar
OC[C@H]1O[C@@H](c2ccc(Cl)c(Cc3ccc(O[C@H]4CCOC4)cc3)c2)[C@H](O)[C@@H](O)[C@@H]1O [empagliflozin],"IC50 level showing the inhibition activity, compared with canagliflozin",SGLT2,similar
same,"maximum blood concentration (Cmax) in the minimum dosage amount, relative to that of canagliflozin",[1],approximately 1/10
CCOc1ccc(Cc2cc([C@@H]3S[C@H](CO)[C@@H](O)[C@H](O)[C@H]3O)c(OC)cc2C)cc1 [luseogliflozin hydrate],"IC50 level showing the inhibition activity, compared with canagliflozin",SGLT2,similar
same,increase of retinal albumin amount (retinal vascular permeability),"[2]; 10 mg/kg/day as luseogliflozin, two weeks",significantly ameliorated to the control group level
same,"maximum blood concentration (Cmax) in the minimum dosage amount, relative to that of canagliflozin",[1],approximately 1/10
